pIC50: −log10 of the molar value.
Tested on: A. baumannii strain ATCC17978
Experiment: 50% growth inhibitory concentration (IC50) determination, Iso-Sensitest broth
Assay type: cell-based
Settings: Acinetobacter baumannii; A. baumannii ATCC17978; Iso-Sensitest medium; OD 600 nm over 16 h; read-out: IC50 ATCC17978
Protocol: The in vitro antimicrobial activity of the compounds was alternatively determined according to the following procedure:
The assay used a 10-points Iso-Sensitest broth medium to measure quantitatively the in vitro activity of the compounds against A. baumannii ATCC 17978.
Stock compounds in DMSO were serially twofold diluted (e.g. range from 50 to 0.097 μM final concentration) in 384 wells microtiter plates and inoculated with 49 μl the bacterial suspension in Iso-Sensitest medium to have a final cell concentration of ˜5×10^(5) CFU/ml in a final volume/well of 50 ul/well. Microtiter plates were incubated at 35±2° C.
Bacterial cell growth was determined with the measurement of optical density at λ=600 nm each 20 minutes over a time course of 16 h.
Growth inhibition was calculated during the logarithmic growth of the bacterial cells with determination of the concentration inhibiting 50% (IC50) and 90% (IC90) of the growth.
Tables 3, 4 and 5 provide the 50% growth inhibitory concentrations (IC50) in micromoles per liter of the compounds of present invention obtained against the A. baumannii strain ATCC17978.

SMILES | pIC50
CN1C(=O)[C@H](CCCCN)NC(=O)[C@H](CCCN)NCc2ccccc2Sc2c(Cl)cc(-c3ccccc3)cc2CNC(=O)[C@@H]1Cc1c[nH]c2ccccc12 [Example 140, (12S,15S,18S)-15-(4-Amino-butyl)-18-(3-amino-propyl)-4-chloro-12-(1H-indol-3-ylmethyl)-13-methyl-6-phenyl-2-thia-10,13,16,19-tetraaza-tricyclo[19.4.0.0*3,8*]pentacosa-1(25),3,5,7,21,23-hexaene-11,14,17-trione] | 6.22
CN1C(=O)[C@H](CCCCN)NC(=O)[C@H](CCCN)NCc2cccnc2Sc2c(Cl)ccc(-c3ccc(S(=O)(=O)NCCO)cc3)c2CNC(=O)[C@@H]1Cc1c[nH]c2ccccc12 [Example 246, 4-[(11S,14S,17S)-14-(4-Amino-butyl)-11-(3-amino-propyl)-25-chloro-17-(1H-indol-3-ylmethyl)-16-methyl-12,15,18-trioxo-2-thia-4,10,13,16,19-pentaaza-tricyclo[19.4.0.0*3,8*]pentacosa-1(25),3(8),4,6,21,23-hexaen-22-yl]-N-(2-hydroxy-ethyl)-benzenesulfonamide] | > 7.00
CN1C(=O)[C@H](CCCCN)NC(=O)[C@H](CCCN)NCc2cccnc2Sc2ccc(N3CCOCC3)nc2CNC(=O)[C@@H]1Cc1c[nH]c2ccccc12 [Example 218, (7S,10S,13S)-13-((1H-Indol-3-yl)methyl)-10-(4-aminobutyl)-7-(3-aminopropyl)-12-methyl-18-morpholino-6,7,9,10,12,13,15,16-octahydrodipyrido[2,3-b:2′,3′-p][1,5,8,11,14]thiatetraazacycloheptadecine-8,11,14(5H)-trione] | 5.70
CN1C(=O)[C@H](CCC(N)=O)NC(=O)[C@H](CCCN)NCc2ccccc2Sc2c(cc(-c3ccccc3)cc2C(F)(F)F)CNC(=O)[C@@H]1Cc1c[nH]c2ccccc12 [Example 161, 3-[(11S,14S,17S)-11-(3-Amino-propyl)-17-(1H-indol-3-ylmethyl)-16-methyl-12,15,18-trioxo-23-phenyl-25-trifluoromethyl-2-thia-10,13,16,19-tetraaza-tricyclo[19.4.0.0*3,8*]pentacosa-1(25),3,5,7,21,23-hexaen-14-yl]-propionamide] | 5.17
CN1C(=O)[C@H](CCCCN)NC(=O)[C@H](CCCN)NCc2cc(Br)cnc2Sc2ccccc2CNC(=O)[C@@H]1Cc1c[nH]c2ccccc12 [Example 236, (7S,10S,13S)-13-((1H-Indol-3-yl)methyl)-10-(4-aminobutyl)-7-(3-aminopropyl)-3-bromo-12-methyl-6,7,9,10,12,13,15,16-octahydrobenzo[b]pyrido[3,2-p][1,5,8,11,14]thiatetraazacycloheptadecine-8,11,14(5H)-trione] | 5.49
CN(C)CCNC(=O)c1ccc(-c2ccc(Cl)c3c2CNC(=O)[C@H](Cc2c[nH]c4ccccc24)N(C)C(=O)[C@H](CCCCN)NC(=O)[C@H](CCCN)NCc2cccnc2S3)cc1 [Example 248, 4-[(11S,14S,17S)-14-(4-Amino-butyl)-11-(3-amino-propyl)-25-chloro-17-(1H-indol-3-ylmethyl)-16-methyl-12,15,18-trioxo-2-thia-4,10,13,16,19-pentaaza-tricyclo[19.4.0.0*3,8*]pentacosa-1(25),3(8),4,6,21,23-hexaen-22-yl]-N-(2-dimethylamino-ethyl)-benzamide] | > 7.00
CN1C(=O)[C@H](CCCCN)NC(=O)[C@H](CCCN)NCc2ccccc2Sc2c(-c3ccnc(C(F)(F)F)c3)ncc(Cl)c2CNC(=O)[C@@H]1Cc1c[nH]c2ccccc12 [Example 198] | 6.52
CN1C(=O)[C@H](CCCCN)NC(=O)[C@H](CCCN)NCc2ccccc2Sc2c(ccc(Br)c2Cl)CNC(=O)[C@@H]1Cc1c[nH]c2ccccc12 [Example 168, (12S,15S,18S)-15-(4-Amino-butyl)-18-(3-amino-propyl)-5-bromo-4-chloro-12-(1H-indol-3-ylmethyl)-13-methyl-2-thia-10,13,16,19-tetraaza-tricyclo[19.4.0.0*3,8*]pentacosa-1(25),3,5,7,21,23-hexaene-11,14,17-trione] | > 6.40
CN1C(=O)[C@H](CCCCN)NC(=O)[C@H](CCCN)NCc2ccccc2Sc2c(Cl)cc(-c3cccnc3)cc2CNC(=O)[C@@H]1Cc1c[nH]c2ccccc12 [Example 142, (12S,15S,18S)-15-(4-Amino-butyl)-18-(3-amino-propyl)-4-chloro-12-(1H-indol-3-ylmethyl)-13-methyl-6-pyridin-3-yl-2-thia-10,13,16,19-tetraaza-tricyclo[19.4.0.0*3,8*]pentacosa-1(25),3,5,7,21,23-hexaene-11,14,17-trione] | > 6.40
CN1C(=O)[C@H](CCCCN)NC(=O)[C@H](CCCN)NCc2cccnc2Sc2c(Cl)ccc(-c3ccc(OCC(=O)O)cc3)c2CNC(=O)[C@@H]1Cc1c[nH]c2ccccc12 [Example 241, {4-[(11S,14S,17S)-14-(4-Amino-butyl)-11-(3-amino-propyl)-25-chloro-17-(1H-indol-3-ylmethyl)-16-methyl-12,15,18-trioxo-2-thia-4,10,13,16,19-pentaaza-tricyclo[19.4.0.0*3,8*]pentacosa-1(25),3(8),4,6,21,23-hexaen-22-yl]-phenoxy}-acetic acid] | > 6.70
CN1C(=O)[C@H](CCCCN)NC(=O)[C@H](CCCN)NCc2ccc(-c3ccccc3)cc2Sc2c(Cl)cccc2CNC(=O)[C@@H]1Cc1c[nH]c2ccccc12 [Example 220, (12S,15S,18S)-15-(4-Amino-butyl)-18-(3-amino-propyl)-4-chloro-12-(1H-indol-3-ylmethyl)-13-methyl-24-phenyl-2-thia-10,13,16,19-tetraaza-tricyclo[19.4.0.0*3,8*]pentacosa-1(25),3,5,7,21,23-hexaene-11,14,17-trione] | 5.24
CN1C(=O)[C@H](CCCCN)NC(=O)[C@H](CCCN)NCc2cccnc2Sc2c(Cl)ccc(-c3ccc(CN)cc3)c2CNC(=O)[C@@H]1Cc1c[nH]c2ccccc12 [Example 243, (11S,14S,17S)-14-(4-Amino-butyl)-22-(4-aminomethyl-phenyl)-11-(3-amino-propyl)-25-chloro-17-(1H-indol-3-ylmethyl)-16-methyl-2-thia-4,10,13,16,19-pentaaza-tricyclo[19.4.0.0*3,8*]pentacosa-1(25),3(8),4,6,21,23-hexaene-12,15,18-trione] | > 7.00
CN1C(=O)[C@H](CCCCN)NC(=O)[C@H](CCCN)NCc2ccc(Br)cc2Sc2c(Cl)cccc2CNC(=O)[C@@H]1Cc1c[nH]c2ccccc12 [Example 219, (12S,15S,18S)-15-(4-Amino-butyl)-18-(3-amino-propyl)-24-bromo-4-chloro-12-(1H-indol-3-ylmethyl)-13-methyl-2-thia-10,13,16,19-tetraaza-tricyclo[19.4.0.0*3,8*]pentacosa-1(25),3,5,7,21,23-hexaene-11,14,17-trione] | 6.22
CN1C(=O)[C@H](CCCCN)NC(=O)[C@H](CCCN)NCc2ccccc2Sc2c(-c3ccncc3)ncc(Cl)c2CNC(=O)[C@@H]1Cc1c[nH]c2ccccc12 [Example 195] | 5.52
CN1C(=O)[C@H](CCCCN)NC(=O)[C@H](CCCN)NCc2ccccc2Sc2c(Cl)cc(-c3ccncc3)cc2CNC(=O)[C@@H]1Cc1c[nH]c2ccccc12 [Example 143, (12S,15S,18S)-15-(4-Amino-butyl)-18-(3-amino-propyl)-4-chloro-12-(1H-indol-3-ylmethyl)-13-methyl-6-pyridin-4-yl-2-thia-10,13,16,19-tetraaza-tricyclo[19.4.0.0*3,8*]pentacosa-1(25),3,5,7,21,23-hexaene-11,14,17-trione] | > 6.40

Reference: patent US10030047B2 (Hoffmann-La Roche Inc., priority 2015, dated 2018)
